# Data taken from patent publication US6867009B2 (priority 1999, dated 2005).
# pEC50, pIC50, pKd, pKi: −log10 of the molar value. “And” between values parts separate entries of the source, which are not always exact repeats. Equal values may be shown once. Read-outs that look alike come from different tables or passages of the source.
# Tests used:
# [1] = biological target: T1, rat vanilloid-receptor-like protein 1 (VRL-1) (Rattus norvegicus, UniProt Q9WUD2); details: cited from earlier work
# T1 sequence (Q9WUD2 1-761): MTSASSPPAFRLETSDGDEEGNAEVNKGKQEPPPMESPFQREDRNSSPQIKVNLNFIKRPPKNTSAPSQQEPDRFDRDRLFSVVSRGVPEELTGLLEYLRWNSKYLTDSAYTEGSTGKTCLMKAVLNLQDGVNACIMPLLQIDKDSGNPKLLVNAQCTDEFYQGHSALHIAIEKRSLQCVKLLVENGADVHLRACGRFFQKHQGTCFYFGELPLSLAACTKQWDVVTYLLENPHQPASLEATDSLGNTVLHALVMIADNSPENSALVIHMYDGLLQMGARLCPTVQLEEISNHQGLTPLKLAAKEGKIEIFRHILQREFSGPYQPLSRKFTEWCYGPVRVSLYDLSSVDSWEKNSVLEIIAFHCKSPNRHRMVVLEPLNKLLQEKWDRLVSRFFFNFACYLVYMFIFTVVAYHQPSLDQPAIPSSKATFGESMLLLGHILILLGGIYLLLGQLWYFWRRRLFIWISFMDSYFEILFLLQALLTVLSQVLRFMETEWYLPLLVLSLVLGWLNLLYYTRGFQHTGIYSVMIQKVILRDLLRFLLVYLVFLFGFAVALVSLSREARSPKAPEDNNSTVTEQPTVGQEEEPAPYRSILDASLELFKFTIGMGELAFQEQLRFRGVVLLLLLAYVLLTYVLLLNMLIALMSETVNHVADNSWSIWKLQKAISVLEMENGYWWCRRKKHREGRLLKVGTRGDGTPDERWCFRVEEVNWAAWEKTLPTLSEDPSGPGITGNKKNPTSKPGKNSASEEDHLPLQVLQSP
# [2] = biological target: T2, short form of human capsaicin receptor (Homo sapiens, UniProt Q8NER1, M315I/P91S/T469I); format: cell-based
# T2 construct: expressed in transfected cells; host or cells: HEK 293T (transient, LIPOFECTAMINE; plasmid PT36)
# T2 sequence (Q8NER1 with tags, fused parts or gaps P91S/M315I/T469I): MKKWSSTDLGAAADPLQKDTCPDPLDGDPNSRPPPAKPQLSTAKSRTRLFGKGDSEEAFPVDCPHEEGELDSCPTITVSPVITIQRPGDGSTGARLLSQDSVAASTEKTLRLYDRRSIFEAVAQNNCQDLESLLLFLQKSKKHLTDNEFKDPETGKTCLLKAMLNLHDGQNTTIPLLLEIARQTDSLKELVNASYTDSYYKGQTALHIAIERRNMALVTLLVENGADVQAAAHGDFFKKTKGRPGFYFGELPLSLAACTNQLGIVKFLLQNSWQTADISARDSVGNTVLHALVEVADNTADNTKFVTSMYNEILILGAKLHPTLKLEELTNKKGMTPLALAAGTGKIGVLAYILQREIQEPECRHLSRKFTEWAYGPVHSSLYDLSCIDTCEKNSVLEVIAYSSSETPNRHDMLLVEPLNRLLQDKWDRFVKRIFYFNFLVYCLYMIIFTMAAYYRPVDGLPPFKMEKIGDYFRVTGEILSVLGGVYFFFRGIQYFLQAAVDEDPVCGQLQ
# [3] = test system: rat dorsal root ganglion neurons; details: cited from earlier work; for EC50: read-out: 45Ca2+-uptake (EC50, nM), agonists; for pEC50: read-out: EC50 for inducing calcium uptake / influx
# [4] = biological target: T3, rat VR1 (Rattus norvegicus, UniProt O35433); assay: cell-based; details: for pEC50: EC50 (potency) of calcium mobilization
# T3 construct: expressed in transfected cells
# T3 sequence (O35433 whole entry): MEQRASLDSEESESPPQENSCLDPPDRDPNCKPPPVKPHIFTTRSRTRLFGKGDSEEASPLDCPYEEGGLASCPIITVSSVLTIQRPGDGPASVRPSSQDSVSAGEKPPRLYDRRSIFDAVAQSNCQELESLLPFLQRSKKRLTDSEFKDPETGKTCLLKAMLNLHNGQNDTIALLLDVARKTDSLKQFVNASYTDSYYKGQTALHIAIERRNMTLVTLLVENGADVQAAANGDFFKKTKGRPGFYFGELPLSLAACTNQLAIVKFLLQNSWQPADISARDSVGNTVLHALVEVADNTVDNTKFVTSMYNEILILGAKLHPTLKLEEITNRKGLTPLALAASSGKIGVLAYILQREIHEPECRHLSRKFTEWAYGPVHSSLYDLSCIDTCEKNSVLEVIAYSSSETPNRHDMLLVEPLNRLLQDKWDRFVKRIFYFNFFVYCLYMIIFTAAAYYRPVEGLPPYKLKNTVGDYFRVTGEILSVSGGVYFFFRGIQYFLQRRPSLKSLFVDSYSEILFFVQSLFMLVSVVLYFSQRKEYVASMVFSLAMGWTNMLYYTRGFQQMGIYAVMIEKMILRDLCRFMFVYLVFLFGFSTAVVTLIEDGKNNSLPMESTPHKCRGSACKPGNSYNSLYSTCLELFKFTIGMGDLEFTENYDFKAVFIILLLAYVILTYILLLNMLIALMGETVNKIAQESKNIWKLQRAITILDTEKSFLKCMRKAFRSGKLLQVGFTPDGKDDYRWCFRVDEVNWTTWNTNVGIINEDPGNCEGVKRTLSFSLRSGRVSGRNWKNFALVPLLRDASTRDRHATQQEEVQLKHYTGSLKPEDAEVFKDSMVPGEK
# [5] = test system: HEK 293T cells; format: cell-based, human
# [6] = biological target: T4, human capsaicin receptor (Homo sapiens, UniProt Q8NER1, T469I); format: cell-based
# T4 construct: expressed in transfected cells; host or cells: HEK 293T (transient, LIPOFECTAMINE; pBK-CMV phagemid clones PT35, PT44)
# T4 sequence (Q8NER1 whole entry T469I): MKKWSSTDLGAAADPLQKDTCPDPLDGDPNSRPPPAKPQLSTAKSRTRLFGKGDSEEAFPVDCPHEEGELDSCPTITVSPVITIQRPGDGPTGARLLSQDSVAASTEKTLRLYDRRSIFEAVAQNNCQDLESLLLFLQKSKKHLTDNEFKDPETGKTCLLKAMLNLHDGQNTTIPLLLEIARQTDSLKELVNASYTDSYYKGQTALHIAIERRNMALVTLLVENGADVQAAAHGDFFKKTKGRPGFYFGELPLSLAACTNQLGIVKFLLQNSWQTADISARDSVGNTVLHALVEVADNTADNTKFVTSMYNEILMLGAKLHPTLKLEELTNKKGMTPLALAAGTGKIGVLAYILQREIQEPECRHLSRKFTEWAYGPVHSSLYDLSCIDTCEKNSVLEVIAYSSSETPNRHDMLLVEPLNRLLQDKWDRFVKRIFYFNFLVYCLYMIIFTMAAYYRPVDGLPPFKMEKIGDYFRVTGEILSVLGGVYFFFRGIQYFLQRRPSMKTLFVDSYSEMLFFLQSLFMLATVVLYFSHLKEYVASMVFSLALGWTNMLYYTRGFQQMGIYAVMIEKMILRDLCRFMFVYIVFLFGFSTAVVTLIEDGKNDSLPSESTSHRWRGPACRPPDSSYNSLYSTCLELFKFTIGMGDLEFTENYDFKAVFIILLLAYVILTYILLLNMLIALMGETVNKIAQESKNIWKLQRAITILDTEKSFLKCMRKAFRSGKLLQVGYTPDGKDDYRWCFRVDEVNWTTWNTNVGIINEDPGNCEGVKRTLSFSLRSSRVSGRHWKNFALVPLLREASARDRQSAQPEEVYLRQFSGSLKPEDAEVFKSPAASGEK
# [7] = biological target: T5, native rat vanilloid receptors (Rattus norvegicus, UniProt O35433); assay: biochemical; format: binding
# T5 construct: rat DRG membranes expressing native vanilloid receptors; from tissue; host or cells: dorsal root ganglia of female Sprague-Dawley rats, partially purified membrane fraction
# T5 sequence (O35433 whole entry): as the sequence (O35433 whole entry) above
# [8] = biological target: T3, rat VR1; assay: biochemical; format: binding
# [9] = biological target: T3, rat VR1; assay: biochemical; format: binding; remark: listed apart in the source
# [10] = biological target: T3, rat VR1; assay: cell-based
# [11] = biological target: T6, vanilloid receptor (VR) (Rattus norvegicus, UniProt O35433); details: cited from earlier work
# T6 construct: With regard to DRG neurons expressing native VRs this is clearly not the case; host or cells: intact rat dorsal root ganglion neurons
# T6 sequence (O35433 whole entry): as above
# [12] = biological target: T7, VR1 (Rattus norvegicus, UniProt O35433); details: cited from earlier work
# T7 construct: host or cells: Xenopus oocytes (A8); VR1-transfected HEK293 cells (A9)
# T7 sequence (O35433 whole entry): as above
# [13] = Binding affinity (nM), radioligand itself
# [14] = read-out: Ki for inhibition of [3H]RTX binding
compound,measurement,setting,value
COc1cc(CNC(=O)CCCC/C=C/C(C)C)ccc1O [capsaicin],sensitivity of VRL-1,[1],insensitive
same,Ave Max Response (RFU),[2],805 RFU
same,EC50,[3],340 nM
same,pEC50,[3],6.57
same,time to peak value of calcium mobilization response,[4],≤ 1 min
same,Ave Max Response (RFU),[5],843 RFU
same,Ave Max Response (RFU),[6],7257 RFU and 5529 RFU
Oc1cc2c(cc1O)CN(C(=S)NCCc1ccc(Cl)cc1)CCC2 [capsazepine],pKi,[7],5.07
same,Ki,"[8]; Binding affinity (nM), competing ligands",5100 nM
same,pKi,"[3]; read-out: 45Ca2+-uptake, Ki value",6.57
same,pKi,"[4]; Ca2+-mobilization, Ki value",6.85 and 5.96
same,pIC50,[4]; IC50 for inhibition of capsaicin-evoked calcium mobilization,5.62 and 6.48
CC1(C)C[C@H]2C=C(C=O)[C@]3(C=O)C[C@]3(C)[C@H]2C1 [isovelleral],pKi,[9]; Ki for inhibition of [3H]RTX binding,4.74 and 4.70
same,pKi,[7],4.62
CCCCCCCC/C=C\CCCCCCCC(=O)NCc1ccc(O)c(OC)c1 [olvanil],pKi,[7],6.52
same,EC50,[3],170 nM
same,EC50,"[4]; Ca2+-mobilization (EC50, nM), agonists",216 nM
same,pEC50,[4],7.66
"C=C(C)[C@]12C[C@@H](C)[C@@]34O[C@](Cc5ccccc5)(O[C@@H]1[C@@H]3C=C(COC(=O)Cc1ccc(O)c(OC)c1)C[C@]1(O)C(=O)C(C)=C[C@@H]41)O2 [resiniferatoxin, Resiniferatoxin]",pEC50,[10],8.39
same,fold more potent for binding than for inducing calcium uptake,[11],approximately 25 fold
same,pKd,[11]; read-out: Kd of binding,10.40
same,Bmax,[9],250+/−24 fmol/10^6 cells
same,"Hill coefficient, FIG. 1A",[9],1.8
same,Hill number (cooperativity index),[9],2.1 and 2.1+/−0.2
same,dissociation constant (1st order decay),[9],0.12 ± 0.02 min⁻¹
same,"maximal receptor density, FIG. 1A",[9],222 fmol per one million cells
same,non-specific binding as share of total binding,[9],approximately 20%
same,receptor density,[9],1.5×10^5 binding sites per cell
same,"specific binding attained, of its peak value",[9],approximately 90%
same,pKd,"[9]; Half-maximal binding, FIG. 1A",10.25
same,pKd,[9]; [3H]RTX binding affinity (half-maximal binding),10.08
same,Bmax,[7],290+/−10 fmol/mg protein
same,"Hill coefficient, FIG. 2",[7],1.5
same,Hill number (cooperativity index),[7],1.7 and 1.9+/−2
same,"maximal receptor density, FIG. 2",[7],302 fmol per one million cells
same,Kd,[7]; [13],0.07 nM
same,pKd,"[7]; Half-maximal binding, FIG. 2",10.22
same,pKd,[7]; [3H]RTX Kd,10.15
same,Hill number,[8],1.8 and 1.9+/−0.1
same,maximal receptor density,[8],470+/−30 fmol/10^6 cells
same,Kd,[8]; [13],0.13 nM
same,pKd,[8]; [3H]RTX binding affinity (Kd),9.99
same,pEC50,[3],9.00
same,time-course of calcium mobilization response,[4],slowly developing but persistent calcium currents
same,pEC50,[4],8.85
same,fold more potent than capsaicin,[12],approximately 20 fold
N.N.N.N.N.N.N.N.N.N.N.N.N.N.[Cl-].[Cl-].[Cl-].[Cl-].[Cl-].[Cl-].[O-2].[O-2].[Ru+3].[Ru+3].[Ru+4] [ruthenium red],"Binding affinity (nM), competing ligands",[7],no effect
same,"Binding affinity (nM), competing ligands",[8],no effect
same,pIC50,"[4]; read-out: IC50 for prevention of calcium mobilization by capsaicin, n=7",6.68
CC(C)=CCC/C(C)=C/CC/C(C)=C/Cc1c(C)c(C=O)c(O)c(O)c1O [scutigeral],pKi,[9]; [14],4.70 and 4.74
same,pKi,[7]; [14],4.68
